ChEMBL document CHEMBL1127438, “Substituted (S)-phenylpiperidines and rigid congeners as preferential dopamine autoreceptor antagonists: synthesis and structure-activity relationships” (J Med Chem, 1994)
Values joined by “and” are separate entries in the source; they are usually repeats but may differ in a detail not shown here. Identical values can stand only once.

Columns and labels:
D(2) dopamine receptor [1] = target: T1, D(2) dopamine receptor (Rattus norvegicus, UniProt P61169)
Description: Affinity against striatal dopamine D2 receptors using [3H]spiperone as radioligand in rats.

Rattus norvegicus [2] = experiment: Compound is evaluated for DOPA accumulation (DOPAacc) level in nonhabituated rats after subcuteneous dose (100 uM/kg) in rat striatum; assay type: functional
D(2) dopamine receptor [3] = target: T2, D(2) dopamine receptor (Homo sapiens, UniProt P14416); experiment: biochemical
Description: Affinity against recombinant dopamine receptor (DA) D2 expressed in CHO-K1 cells, using [3H]-spiperone as radioligand

Rattus norvegicus [4] = experiment: Compound is evaluated biochemically in nonhabituated rats for (100 umol/kg) subcuteneous dose, Value expressed as locomotor activity (LMA); assay type: functional
D(2) dopamine receptor [5] = target: T2, D(2) dopamine receptor; experiment: biochemical; remark: listed apart in the source
Description: In vitro binding affinity against cloned mammalian dopamine D2 autoreceptor, expressed in CHO-K1 cells, using [3H]U-86170 as radioligand

D(3) dopamine receptor [6] = target: T3, D(3) dopamine receptor (Homo sapiens, UniProt P35462); experiment: Tested for in vitro binding affinity against cloned mammalian dopamine D3 receptor, expressed in CHO-K1 cells, using [3H]spiperone as radioligand; assay type: cell-based
Rattus norvegicus [7] = experiment: Evaluated biochemically in nonpretreated habituated rats for (100 uM/kg) subcuteneous dose, Value expressed as locomotor activity (LMA); assay type: functional
Rattus norvegicus [8] = experiment: Evaluated for DOPA accumulation (DOPAacc) level in nonhabituated rats after subcuteneous dose (100 uM/kg) in rat striatum; assay type: functional
Rattus norvegicus [9] = experiment: Evaluated biochemically in reserpine-pretreated habituated rats for (100 umol/kg) subcuteneous dose, Value expressed as locomotor activity (LMA); assay type: functional
D(3) dopamine receptor [10] = target: D(3) dopamine receptor (Rattus norvegicus, UniProt P19020); experiment: Tested for in vitro binding affinity against cloned mammalian dopamine autoreceptor, expressed in CHO-K1 cells, using [3H]spiperone as radioligand; assay type: cell-based
Rattus norvegicus [11] = experiment: Evaluated for DOPAC level in nonpretreated habituated rats after subcuteneous dose of 100 micro mol/kg in rat striatum; assay type: functional
Rattus norvegicus [12] = experiment: Evaluated biochemically in reserpine-pretreated habituated rats for (100 umol/kg) subcuteneous dose in rat striatum (DOPAacc), Value expressed as counts/30 min; assay type: functional
Rattus norvegicus [13] = experiment: Compound is evaluated for locomotor activity in reserpine-pretreated habituated rats at 100 umol/kg of subcuteneous dose; assay type: functional
Rattus norvegicus [14] = species on record: Rattus norvegicus; experiment: Compound is tested for concomitant ability to antagonize the locomotor activity induced by Di-Pr-5,6-ADTN; assay type: functional
Rattus norvegicus [15] = experiment: Compound is evaluated for biochemical accumulation of DOPAC in nonpretreated habituated rats for subcuteneous dose of 100 micro mol/kg in rat striatum; assay type: functional
Rattus norvegicus [16] = experiment: Evaluated for locomotor activity in nonpretreated habituated rats at 100 umol/kg of subcuteneous dose; assay type: functional; set-up: unit not given here
Dopamine receptor = experiment: Tested for in vitro binding affinity against cloned mammalian dopamine autoreceptor (DA) receptors expressed in CHO-K1 cells using [3H]U-86170 as radioligand; assay type: cell-based
Rattus norvegicus [17] = experiment: Effect (60 min after administration of 200 (micro mol/kg) subcuteneous dose on DA release in brain dialysis model of rat striatum; assay type: functional
Rattus norvegicus [18] = experiment: Compound is evaluated for locomotor activity in nonpretreated habituated rats in 50 umol/kg of subcuteneous dose; assay type: functional
Rattus norvegicus [19] = experiment: Evaluated for biochemical levels of DOPAC in nonpretreated habituated rats for subcuteneous dose of 100 micro mol/kg in rat striatum; assay type: functional
Rattus norvegicus [20] = experiment: Compound is evaluated for DOPA accumulation in reserpine-pretreated habituated rats at 100 micro mol/kg of subcuteneous dose in rat striatum; assay type: functional
D(3) dopamine receptor [21] = target: T3, D(3) dopamine receptor; experiment: Tested for in vitro binding affinity against cloned mammalian dopamine autoreceptor (DA) receptors expressed in CHO-K1 cells [3H]-spiperone as radioligand; assay type: cell-based
D(2) dopamine receptor [22] = target: T1, D(2) dopamine receptor; experiment: Tested for affinity against striatal dopamine autoreceptor (DA) D2 receptors using [3H]spiperone as radioligand in rats.
Rattus norvegicus [23] = experiment: Compound is evaluated for DOPA accumulation in reserpine-pretreated habituated rats at 50 umol/kg of subcuteneous dose in rat striatum; assay type: functional
Rattus norvegicus [24] = experiment: Evaluated for locomotor activity in nonpretreated habituated rats in 100 umol/kg of subcuteneous dose; assay type: functional; set-up: unit not given here

T2 sequence (P14416 whole entry): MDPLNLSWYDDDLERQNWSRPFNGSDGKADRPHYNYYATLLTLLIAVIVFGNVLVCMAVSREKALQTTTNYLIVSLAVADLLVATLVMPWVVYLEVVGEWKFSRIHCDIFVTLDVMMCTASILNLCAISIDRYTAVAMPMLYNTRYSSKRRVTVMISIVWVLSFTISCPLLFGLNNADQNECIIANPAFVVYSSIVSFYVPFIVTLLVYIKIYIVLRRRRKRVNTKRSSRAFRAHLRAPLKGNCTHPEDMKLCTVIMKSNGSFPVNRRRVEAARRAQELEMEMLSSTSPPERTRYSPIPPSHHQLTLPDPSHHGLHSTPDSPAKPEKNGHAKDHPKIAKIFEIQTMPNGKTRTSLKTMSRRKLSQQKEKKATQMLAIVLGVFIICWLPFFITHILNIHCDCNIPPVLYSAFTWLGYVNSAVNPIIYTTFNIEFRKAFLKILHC
T1 sequence (P61169 whole entry): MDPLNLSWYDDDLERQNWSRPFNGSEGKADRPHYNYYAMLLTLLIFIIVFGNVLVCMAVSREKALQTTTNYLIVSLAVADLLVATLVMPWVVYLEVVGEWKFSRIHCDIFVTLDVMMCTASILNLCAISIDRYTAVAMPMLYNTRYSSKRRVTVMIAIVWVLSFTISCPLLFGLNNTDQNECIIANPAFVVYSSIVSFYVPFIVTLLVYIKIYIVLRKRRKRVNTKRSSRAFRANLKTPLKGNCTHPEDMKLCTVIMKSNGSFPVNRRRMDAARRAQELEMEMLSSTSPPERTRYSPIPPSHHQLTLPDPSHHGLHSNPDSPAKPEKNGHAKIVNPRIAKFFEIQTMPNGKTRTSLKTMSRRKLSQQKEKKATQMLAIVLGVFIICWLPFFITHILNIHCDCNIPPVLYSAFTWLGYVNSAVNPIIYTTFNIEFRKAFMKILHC
T3 sequence (P35462 whole entry): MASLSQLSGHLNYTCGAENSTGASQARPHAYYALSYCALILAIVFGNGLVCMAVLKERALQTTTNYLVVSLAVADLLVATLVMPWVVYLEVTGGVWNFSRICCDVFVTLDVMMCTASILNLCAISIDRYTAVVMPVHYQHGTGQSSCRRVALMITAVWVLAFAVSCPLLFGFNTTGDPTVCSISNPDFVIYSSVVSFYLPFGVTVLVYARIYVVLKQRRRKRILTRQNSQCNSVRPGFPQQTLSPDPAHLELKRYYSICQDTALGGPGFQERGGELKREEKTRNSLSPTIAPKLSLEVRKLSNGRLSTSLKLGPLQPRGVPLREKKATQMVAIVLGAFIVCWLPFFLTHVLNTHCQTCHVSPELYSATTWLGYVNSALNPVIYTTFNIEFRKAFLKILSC
Chain of D(3) dopamine receptor (Rattus norvegicus, UniProt P19020) (P19020 whole entry): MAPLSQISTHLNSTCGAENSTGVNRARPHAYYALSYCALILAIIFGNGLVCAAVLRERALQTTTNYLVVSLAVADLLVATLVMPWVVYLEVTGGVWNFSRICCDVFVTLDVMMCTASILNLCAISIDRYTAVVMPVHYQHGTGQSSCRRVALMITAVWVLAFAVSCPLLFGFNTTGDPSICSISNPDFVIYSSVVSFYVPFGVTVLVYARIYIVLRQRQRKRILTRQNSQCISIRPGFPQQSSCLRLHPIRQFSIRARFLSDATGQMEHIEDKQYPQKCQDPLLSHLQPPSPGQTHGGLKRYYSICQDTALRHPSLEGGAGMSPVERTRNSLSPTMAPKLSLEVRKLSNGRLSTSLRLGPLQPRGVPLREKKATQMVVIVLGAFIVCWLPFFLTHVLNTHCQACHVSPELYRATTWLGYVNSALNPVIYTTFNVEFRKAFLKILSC

SMILES: CCCN1CCC[C@@H](c2cccc(OCC(F)(F)F)c2)C1
- Ki (D(2) dopamine receptor [1]): 1670 nM
- Control (Rattus norvegicus [2]): 96%
- Ki (D(2) dopamine receptor [3]): > 217 nM
- Control (Rattus norvegicus [4]): 90%
- Ki (D(2) dopamine receptor [5]): 820 nM
- Ki (D(3) dopamine receptor [6]): 1410 nM

SMILES: CCCN1CCC[C@@H](c2cccc(OC)c2)C1
- Control (Rattus norvegicus [7]): 463%
- Activity (Rattus norvegicus [8]): 131%
- Ki (D(2) dopamine receptor [1]): 3440 nM
- Control (Rattus norvegicus [9]): 23%
- Ki (D(3) dopamine receptor [10]): 1330 nM
- Ki (D(2) dopamine receptor [3]): > 217 nM
- Activity (Rattus norvegicus [11]): 149%
- Control (Rattus norvegicus [4]): 160%
- Activity (Rattus norvegicus [12]): 66%
- Ki (D(2) dopamine receptor [5]): 602 nM

SMILES: CCCN1CCC[C@@H](c2cccc(OS(=O)(=O)C(F)(F)F)c2)C1
- LMA (Rattus norvegicus [13]): 26
- LMA (Rattus norvegicus [14]): 78%
- Activity (Rattus norvegicus [15]): 264% and 89%
- LMA (Rattus norvegicus [16]): 290
- Ki (Dopamine receptor): 40 nM
- Activity (Rattus norvegicus [17]): 223%

SMILES: CCCN1CCCC2c3cccc(OS(=O)(=O)C(F)(F)F)c3CCC21 (stereo in doubt; 46)
- LMA (Rattus norvegicus [18]): 211
- Ki (D(2) dopamine receptor [3]): > 217 nM
- Activity (Rattus norvegicus [19]): 263%
- Activity (Rattus norvegicus [20]): 62%
- Ki (D(3) dopamine receptor [21]): 22 nM
- Ki (Dopamine receptor): 21 nM
- Ki (D(2) dopamine receptor [22]): 64 nM
- Activity (Rattus norvegicus [23]): 85%
- LMA (Rattus norvegicus [24]): 200
